Source: patent US11213509B2, “Compositions and methods for treating traumatic brain injury” (Ischemix, LLC, priority 2017, dated 2022)

Columns and labels:
rat model of focal TBI = assay: Beam balance test, rat model of focal TBI (BCCI); format: in vivo
From the text: BCCI TBI to the medial frontal cortex (MFC) was induced by a cortical contusion device (Custom Design & Fabrication, Inc [CDF], Richmond, Va.). This device creates a reliable contusion injury to the exposed area of the brain with a brass-tipped impounder. (Hoffman et al., 1994). Rats were anesthetized with isoflurane (5%) (Novaplus™), and 02 (300 cm^3/min), and mounted in a stereotaxic frame. Under aseptic conditions, a sagittal incision was made in the scalp and the fascia retracted to expose the cranium. Then, a 6-mm diameter trephine drill was used to open the skull immediately anterior to the bregma. TBI of the MFC was made with a 5-mm-diameter rounded brass impactor attached to a computer-controlled piston propelled electronically with following parameters: velocity=2.5 m/s; depth=3 mm; duration=100 ms). After BCCI, any cortical surface hemorrhaging was controlled and the fascia and scalp sutured. […]
The beam balance test examined vestibulomotor reflex activity of the animals after injury. […] The animal was gently placed on a suspended narrow beam 1.5 cm wide with a rough surface and the duration for which it remained on the beam was measured with a maximum cutoff time of 60 sec. […]
(§1) Data are presented as mean±SEM and analyzed by one-way repeated measures Analysis of variance (ANOVA) in order to test the effects of treatment on beam balance times and Morris water maze performance. […]

[1] = Body weight and post-operative observations, rat model of focal TBI (BCCI); format: in vivo
From the text: Adult, male, Spague-Dawley rats from Charles River were used. Animals were received at PsychoGenics and assigned unique identification numbers (tails marked). Animals were housed 2 per cage in polycarbonate rat cages equipped with microisolators and acclimated for up to 7 days. All rats were examined, handled, and weighed prior to initiation of the study to assure adequate health and suitability. During the course of the study, 12/12 light/dark cycles were maintained. The room temperature was maintained between 20 and 23° C. with a relative humidity maintained around 50%. Chow and water were provided ad libitum for the duration of the study. Animals were randomly assigned across treatment groups.
BCCI TBI to the medial frontal cortex (MFC) was induced by a cortical contusion device (Custom Design & Fabrication, Inc [CDF], Richmond, Va.). This device creates a reliable contusion injury to the exposed area of the brain with a brass-tipped impounder. (Hoffman et al., 1994). Rats were anesthetized with isoflurane (5%) (Novaplus™), and 02 (300 cm^3/min), and mounted in a stereotaxic frame. […]
as §1

[2] = Body weight change, fluid percussion model of diffused TBI; format: in vivo, rat; conditions: 7.5, 15, 30, 45 mg/kg i.v. vs vehicle; 28 days
Description: (§2) On the day before TBI surgery (Day −1), rats were anesthetized with 3% isoflurane in a mixture of nitrous oxide and oxygen (2:1) for induction of anesthesia and then maintained at 1-3% isoflurane in a mixture of nitrous oxide and oxygen (2:1). The surgical site skin was shaved, and the rat was then placed in a stereotaxic frame. Buprenorphine SR, s.c, (0.9-1.2 mg/kg Zoopharm: Lot: BSR1-142111) and Cefazolin, i.p., (40-50 mg/kg; Hospira: Lot: 101D032) was given at this time. The skull was exposed through a midline incision. A parasagittal craniotomy (5 mm) using a trephine drill was performed at 1 mm posterior to bregma and 1 mm lateral to the midline (outer circumference). […]
(§3) On the day of TBI surgery (Day 0), rats were re-anesthetized with 3% isoflurane in a mixture of nitrous oxide and oxygen (2:1), intubated, connected to a respirator and ventilated with 1-2% isoflurane in a mixture of nitrous oxide and oxygen (2:1). […] The amplitude of the resulting pressure pulse was measured in atmospheres by a pressure transducer. […]
(§4) Dosing solutions were prepared in a blinded fashion with H, I, M, O and Z labels ready to use. […]
All data were expressed as mean S.E.M. Behavioral data and weight were analyzed by repeated measures of ANOVA and/or ANCOVA. […]

[3] = test system: fluid percussion model of diffused traumatic brain injury (TBI) in rats; assay: Body swing test, fluid percussion model of diffused TBI; format: in vivo, rat; conditions: 45 mg/kg i.v. at 30 minutes and 24 hours after TBI; Day 28; vs vehicle, p<0.05
Description: as §2, §3, §4
The rat was held approximately one inch from the base of its tail. […] A swing was recorded whenever the rat moved its head out of the vertical axis to either side. The rat must have returned to the vertical position for the next swing to be counted. Thirty (30) total swings were counted. […]

CC(NC(=O)C(CCC(=O)O)NC(=O)CCCCC1CCSS1)C(=O)O [CMX-2043, N—(R)-lipoyl-glutamylalanine]
Treatment efficacy in beam balance motor test (rat model of focal TBI; 30 mg/kg intravenously): not in the beam balance motor test
Beam balance time (rat model of focal TBI; Day 3 following injury, 30 mg/kg IV, all groups): less than 3 seconds
Body weight / weight gain ([1]; 30 mg/kg IV at 30 minutes and about 24 hrs after injury, vs saline): no adverse effects on weight gain
Survival (deaths within 24 hours post-injury) ([1]; 30 mg/kg IV, TBI-injured rats): 9 surviving animals of the 11 animals treated
Body weight over time [2]: no significant differences
Body swing test recovery [3]: superior recovery compared to vehicle-treated animals
